Measurements reported in the CheMixHub viscosity set.

Test: xn = mol fraction of the nth substance listed

OCC(O)C(O)CO (stereo not given) + O
viscosity [mPa·s], 101 kPa
Settings | 293.15 K | 298.15 K | 303.15 K | 308.15 K | 313.15 K | 318.15 K | 323.15 K
x1 = 0.005 | 1.176 | 1.05 | 0.915 | 0.79 | – | 0.649 | 0.62
x1 = 0.01 | – | 1.152 | 1.021 | 0.912 | 0.821 | 0.744 | 0.679
x1 = 0.015 | 1.42 | 1.25 | 1.109 | 0.968 | 0.891 | 0.808 | 0.736
x1 = 0.02 | 1.53 | 1.327 | 1.191 | 1.053 | 0.965 | 0.86 | 0.813

CCCCNCCCC + ClCCl
298.15 K, 101.3 kPa
Settings | viscosity [mPa·s]
x1 = 0.0995 | 0.494
x1 = 0.2125 | 0.55
x1 = 0.299 | 0.59
x1 = 0.3913 | 0.633
x1 = 0.4338 | 0.655
x1 = 0.6097 | 0.719
x1 = 0.6782 | 0.74
x1 = 0.807 | 0.768
x1 = 0.8865 | 0.787
